According to publication PMC8587515, “Cytotoxic and Anti-Inflammatory Activities of Dihydroisocoumarin and Xanthone Derivatives from Garcinia picrorhiza” (Molecules, 2021):
Where two headings read alike, the source gives them in different places.

Key:
[1] = target: T1, COX-1 (purified PGHS-1 from ram seminal vesicles) (Ovis aries, UniProt P05979); experiment: COX-1 enzyme inhibition assay (PGE2 ELISA); type: biochemical; conditions: mean ± SD (n = 4)
T1 construct: Purified PGHS-1 from ram seminal vesicles for COX-1; purchased Cayman Chemical Co., Ann Arbor, MI, USA; host or cells: ram seminal vesicles (tissue-purified)
T1 sequence (P05979 25-600): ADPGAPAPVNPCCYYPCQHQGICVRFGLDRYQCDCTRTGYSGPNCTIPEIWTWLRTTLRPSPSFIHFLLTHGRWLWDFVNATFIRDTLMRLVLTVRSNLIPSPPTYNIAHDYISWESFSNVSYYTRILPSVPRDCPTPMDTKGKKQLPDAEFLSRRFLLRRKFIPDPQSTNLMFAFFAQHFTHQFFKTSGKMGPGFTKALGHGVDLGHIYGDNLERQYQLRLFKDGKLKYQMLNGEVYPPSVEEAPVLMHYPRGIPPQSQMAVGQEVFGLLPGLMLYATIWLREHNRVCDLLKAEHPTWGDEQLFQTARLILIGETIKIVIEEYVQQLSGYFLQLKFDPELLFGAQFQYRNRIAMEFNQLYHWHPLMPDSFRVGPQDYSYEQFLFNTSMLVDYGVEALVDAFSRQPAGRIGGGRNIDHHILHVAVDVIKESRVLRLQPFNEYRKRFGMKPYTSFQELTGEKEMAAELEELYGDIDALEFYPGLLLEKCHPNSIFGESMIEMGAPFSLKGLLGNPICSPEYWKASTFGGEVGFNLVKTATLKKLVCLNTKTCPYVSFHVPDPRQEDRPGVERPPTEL
Experimental: (§1) The anti-inflammatory effects of the isolated compounds were also screened on COX-1 and COX-2 enzymes inhibition at a final concentration of 20 µM.
(§2) Purified PGHS-1 from ram seminal vesicles for COX-1 and human recombinant PGHS-2 for COX-2 (Cayman Chemical Co., Ann Arbor, MI, USA) were used for the COX inhibition assays. Experiments were performed in a 96-well plate format, as previously described. Briefly, the incubation mixture contained 180 µL of 0.1 M TRIS/HCl-buffer pH 8.0 (Roth, Karlsruhe, Germany), 50 µM Na2EDTA (only for COX-2, Titriplex III, Merck, Darmstadt, Germany), 18 mM L-epinepherine bitartrate (Fluka, Buchs, Switzerland), 5 µM porcine hematin (MP Biomedicals LLC, Solon, OH, USA), and COX-1 or COX-2 enzymes (0.2 U/well). Ten microliters of tested compounds (dissolved in DMSO with a final concentration of 20 µM) was added and the mixture was pre-incubated for 5 min at room temperature. Thereafter, 10 µL of 5 µM arachidonic acid (Ann Arbor, Michigan USA) was added to the mixture and incubated for 20 min at 37 °C. The reaction was subsequently stopped by adding 10 µL of 10% (v/v) formic acid. The concentration of PGE2 generated in the reaction was quantitatively measured by a competitive PGE2 ELISA kit (Enzo Life Sciences Inc., Farmingdale, NY, USA) according to the manufacturer’s protocol and previous procedure. The absorbance at 405 nm was measured using a Hidex Sense Microplate Reader (Hidex, Turku, Finland). […] The assays were performed in duplicates and repeated in two independent experiments.

[2] = target: T2, COX-2 (human recombinant PGHS-2) (Homo sapiens, UniProt P35354); experiment: COX-2 enzyme inhibition assay (PGE2 ELISA); type: biochemical; conditions: mean ± SD (n = 4)
T2 construct: purchased Cayman Chemical Co., Ann Arbor, MI, USA
T2 sequence (P35354 18-604): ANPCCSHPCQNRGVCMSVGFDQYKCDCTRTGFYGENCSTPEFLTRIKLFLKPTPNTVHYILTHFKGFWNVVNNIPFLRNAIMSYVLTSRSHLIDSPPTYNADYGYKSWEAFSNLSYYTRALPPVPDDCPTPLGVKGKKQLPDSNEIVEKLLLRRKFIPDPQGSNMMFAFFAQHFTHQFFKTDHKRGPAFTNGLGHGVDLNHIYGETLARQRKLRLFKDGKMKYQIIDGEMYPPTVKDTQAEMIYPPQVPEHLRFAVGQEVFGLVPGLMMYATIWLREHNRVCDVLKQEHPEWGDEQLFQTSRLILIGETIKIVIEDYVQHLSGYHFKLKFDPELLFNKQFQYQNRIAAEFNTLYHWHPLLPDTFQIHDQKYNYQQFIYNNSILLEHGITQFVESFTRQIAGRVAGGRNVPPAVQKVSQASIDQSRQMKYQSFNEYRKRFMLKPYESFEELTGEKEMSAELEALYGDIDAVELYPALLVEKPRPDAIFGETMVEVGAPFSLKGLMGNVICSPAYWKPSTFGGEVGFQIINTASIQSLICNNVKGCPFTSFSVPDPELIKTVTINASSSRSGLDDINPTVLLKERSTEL
Experimental: as §1, §2

[3] = system: NO production in LPS-IFN-γ-induced RAW 264.7 macrophages; experiment: NO production inhibition assay (Griess), RAW 264.7; type: cell-based, mouse
Experimental: (§3) Compounds 1–8 were screened for their inhibitory effects on nitric oxide production in LPS-IFN-γ activated RAW 264.7 macrophages and BV-2 microglial cells at a final concentration of 50 µM. […] A deprenylated furanoxanthone structure with ortho hydroxy group in ring B as in 7 might be important to enhance the inhibitory effect when compared to 6 and 8.
(§4) The iNOS inhibitory activity of the isolated compounds and respective cytotoxicity was determined using a previously described protocol. Briefly, BV-2 mouse microglial (25,000 cells/well) and RAW 264.7 mouse macrophage (100,000 cells/well) cell lines were seeded into 96-well plates in high glucose Dulbecco’s Modified Eagle’s Medium (DMEM, Gibco) containing 4 mM L-glutamine, 10% FBS, 2% HEPES, 1% penicillin/streptomycin, and 0.5% amphotericin B. After incubation for 24 h at 37 °C in a 5% CO2 humidified atmosphere, the cells were stimulated with 0.05% LPS (Sigma) and 0.025% interferon-γ (Roche Diagnostics, Mannheim, Germany) and treated with different concentrations (5–100 μM) of the tested compounds. The level of NO production in cell culture supernatants was determined using Griess reagent (Sigma) by photocolorimetric analysis after 16 h of incubation, using a Hidex Sense Microplate Reader (Hidex, Turku, Finland). Fifty microliters of XTT reagent (Sigma, Kit II) was then added into the same plates for cell viability measurement after 60 min incubation. L-NMMA (Alexis, Grünberg, Germany) 100 µM was used as the positive control, while 1% DMSO and digitonin (Roth, Karlsruhe, Germany) 400 µM were used as the vehicle and negative control, respectively. The assays were conducted in triplicates and repeated in two independent experiments. IC50 values were determined by graphical analysis using GraphPad Prism 7 (GraphPad Software, La Jolla, CA, USA).

[4] = system: NO production in LPS-IFN-γ-induced BV-2 microglial cells; experiment: NO production inhibition assay (Griess), BV-2; type: cell-based, mouse
Experimental: as §3, §4

[5] = system: four cancer cells (KB, HeLa S3, MCF-7, and Hep G2); conditions: HeLa S3, MCF-7, Hep G2, earlier studies, read-out: IC50 values against four cancer cells; cited from earlier work
[6] = system: Hep G2 (human hepatocellular carcinoma); parameters: method as in PMID 30153471, PMID 33999337; conditions: MTT; results based on previous work; read-out: IC50 ± SEM, Hep G2; cited from earlier work
[7] = system: MCF-7 (human breast adenocarcinoma); parameters: method as in PMID 30153471, PMID 33999337; conditions: MTT; results based on previous work; read-out: IC50 ± SEM, MCF-7; cited from earlier work
[8] = system: KB (human epidermoid carcinoma); parameters: method as in PMID 30153471, PMID 33999337; conditions: MTT; results based on previous work; read-out: IC50 ± SEM, KB; cited from earlier work
[9] = system: HeLa S3 (human cervical carcinoma); parameters: method as in PMID 30153471, PMID 33999337; conditions: MTT; results based on previous work; read-out: IC50 ± SEM, HeLa S3; cited from earlier work
[10] = system: HT-29 (human colon adenocarcinoma); parameters: method as in PMID 30153471, PMID 33999337; key to IC50 ± SEM, HT-29: IC50 ≤ 10 µM = good cytotoxicity; 10 µM < IC50 ≤ 30 µM = weak cytotoxicity; inactive (IC50 > 30 µM); conditions: MTT, results based on previous work, cited from earlier work
[11] = Cytotoxicity (XTT cell viability), RAW 264.7; type: cell-based; conditions: mouse, RAW 264.7 macrophage cells, LPS/IFN-γ-stimulated, LPS-IFN-γ-induced cells, mean ± SEM (n = 6)
Experimental: as §3, §4

[12] = Cytotoxicity (XTT cell viability), BV-2; type: cell-based; conditions: mouse, BV-2 microglial cells, LPS/IFN-γ-stimulated, LPS-IFN-γ-induced cells, mean ± SEM (n = 6)
Experimental: as §3, §4

[13] = system: KB (human epidermoid carcinoma); experiment: MTT cytotoxic activity assay, KB; type: cell-based; conditions: 72 h, mean ± SEM of three replicates
Experimental: (§5) The cytotoxic activity of the isolated compounds was evaluated using the MTT viability assay with doxorubicin as the positive control and the results are presented in Table 2.
(§6) The MTT colorimetric method was performed to evaluate cytotoxic activity of the isolated compounds against human epidermoid carcinoma (KB; ATCC CCL17), human cervical carcinoma (HeLa S3; ATCC CCL2-2), human colon adenocarcinoma (HT-29; ATCC HTB-38), human breast adenocarcinoma (MCF-7; ATCC HTB-22), and human hepatocellular carcinoma (Hep G2; ATCC HB-8065) cell lines according to the previous method. The cancer cells were cultured in MEM containing 10% fetal bovine serum in the presence of 100 U/mL penicillin and 100 μg/mL streptomycin sulphate (Gibco, Rockville, MD, USA), seeded in a 96-well plate (3000 cells/well), and pre-incubated at 37 °C for 24 h in a 5% CO2 humidified atmosphere. The tested compounds with serial concentrations (0.3–100 μM) were added and incubated for a further 72 h in the same condition. At the end of treatment, 20 µL of MTT solution (5 mg/mL in PBS, Sigma, St. Louis, MI, USA) was added to each well and further incubated for 3 h. After centrifugation at 1400 rpm for 5 min at 4 °C, the supernatant was decanted and DMSO (100 µL/well) was added to allow formazan product solubilization, which was subsequently measured by a microplate reader (Tecan Trading AG, Switzerland) at wavelength 550 nm. Control cells were treated with 0.1% DMSO. Doxorubicin (tested concentrations: 0.01–3.0 μM, Sigma) was used as the positive control. The results are expressed as the mean values of three replicates for three independent experiments. IC50 values were determined by graphical analysis using SigmaPlot 10 (Systat Software Inc., San Jose, CA, USA), obtained by plotting the cell viability percentage versus sample concentration.

[14] = system: HeLa S3 (human cervical carcinoma); experiment: MTT cytotoxic activity assay, HeLa S3; type: cell-based; conditions: 72 h, mean ± SEM of three replicates
Experimental: as §5, §6

[15] = final concentration of 50 µM, preliminary screen

SMILES: COc1c(O)cc2c(c1O)C(=O)O[C@@H](c1ccccc1O)C2 [Compound 3, 2′-hydroxyannulatomarin]
- inhibition at 20 µM [1]: 24.2 ± 12.3%
- inhibition at 20 µM [2]: < 10%

SMILES: [H]/N=C(/NC)NCCC[C@H](N)C(=O)O [L-NMMA, reference compound]
- inhibition at 100 µM ([3]; Mus musculus, RAW264.7, at 100 µM, read-out: inhibition of NO production, RAW 264.7 (positive control)): 64.1%
- inhibition at 100 µM ([4]; Mus musculus, BV-2, at 100 µM, read-out: inhibition of NO production, BV-2 (positive control)): 44.1%

SMILES: COc1c(O)cc2c(c1O)C(=O)O[C@@H](c1ccccc1)C2 [Compound 2, (−)-annulatomarin]
- inhibition at 20 µM [1]: < 10%
- % Inhibition at 20 µM, COX-2 [2]: 10.4 ± 5.0%
- inhibition at 20 µM [2]: > 10%

SMILES: CC(C)=CCc1c2c(c3oc4c(O)c(O)ccc4c(=O)c3c1O)C(C)(C)[C@H](C)O2 [Compound 8, formoxanthone C]
- IC50 [5]: < 10 µM
- IC50 [6]: 3.8 ± 0.5 µM
- IC50 [7]: 4.9 ± 0.4 µM
- IC50 [8]: 0.2 ± 0.1 µM
- inhibition at 20 µM [1]: 24 ± 15%
- inhibition at 20 µM [2]: < 10%
- IC50 [9]: 0.3 ± 0.1 µM
- IC50 ([10]; read-out: IC50 ± SEM, HT-29): 21.9 ± 1.2 µM

SMILES: O=c1c2cccc(O)c2oc2ccc(O)c(O)c12 [Compound 9, 1,2,5-trihydroxyxanthone]
- inhibition at 20 µM [1]: 22.6 ± 2.2%
- inhibition at 20 µM [2]: < 10%

SMILES: COc1cc(O)c2c(=O)c3ccc(O)c(OC)c3oc2c1 [Compound 14, 1,6-dihydroxy-3,5-dimethoxyxanthone]
- inhibition at 20 µM [1]: 18.3 ± 12.1%
- inhibition at 20 µM [2]: < 10%

SMILES: C[C@@H]1Oc2cc(O)c3c(=O)c4cccc(O)c4oc3c2C1(C)C [Compound 6, pancixanthone B]
- IC50 [6]: 22.8 ± 0.4 µM
- IC50 [7]: 15.6 ± 0.3 µM
- IC50 [8]: 12.1 ± 0.1 µM
- inhibition at 20 µM [1]: 31.2 ± 21.7%
- inhibition at 20 µM [2]: < 10%
- IC50 [9]: 20.7 ± 0.6 µM
- IC50 ± SEM, HT-29 [10]: inactive

SMILES: CC1(C)c2c(cc3oc4ccc(O)c(O)c4c(=O)c3c2O)O[C@@H]1CO [Compound 5, 3′-hydroxycalothorexanthone]
- IC50 at 16 h [11]: > 200 µM
- IC50 at 16 h [12]: 74.7 ± 2.1 µM
- IC50 ([3]; Mus musculus, RAW264.7, LPS-IFN-γ-induced, 16 h, mean ± SEM (n = 6), read-out: IC50, iNOS (inhibition of NO production), RAW 264.7): 16.4 ± 4.5 µM
- suppression of NO production, RAW 264.7 [3, 15]: over 70%
- IC50 ([4]; Mus musculus, BV-2, LPS-IFN-γ-induced, 16 h, mean ± SEM (n = 6), read-out: IC50, iNOS (inhibition of NO production), BV-2): 13.8 ± 1.6 µM
- suppression of NO production, BV-2 [4, 15]: over 70%

SMILES: COc1c(O)ccc2c(=O)c3c(O)cc(O)cc3oc12 [Compound 13, 1,3,6-trihydroxy-5-methoxyxanthone]
- IC50 [13]: 11.4 ± 1.7 µM
- IC50 [14]: 15.2 ± 1.3 µM
